Counter-ions that a name gives are not always drawn.
Experiments:
[1] = system: human fetal astrocytes; test: A1 v A2 marker activation, RNA-seq of H2O2-stimulated astrocytes; format: cell-based; conditions: 2.5 μM, 24 hrs, H2O2 (50 μM) stimulated
Procedure: The treated cells were stimulated with H2O2 (50 μM) for 20 min and the RNA extracted 1 day later and sequenced using the Illumina HiSeq 2000 with an average of 39.3 million reads per sample. Reads were mapped to the GHch38/hg38 genome. 13,968 protein-coding genes had detectable expression on average among the 6 samples. Differentially expressed genes (DEGs) were identified using negative binomial models with FDR threshold of <0.10 and fold change (FC) criteria (FC>1.30 or FC<0.77). Gene set enrichment testing was performed using public database annotations. Motif enrichment with respect to DEG up-stream regions was characterized using semiparametric generalized additive logistics models. The overlap between the identified DEGs and MS-associated genes, i.e., genes from MS patients and genes linked to inflammatory (A1) and ischemic (A2) astrogliosis.

[2] = system: human fetal astrocytes derived from cerebral cortex; test: Transcriptome analysis of astrocyte cultures treated with MMF, DRF, IDMF; format: cell-based; conditions: 2.5 μM, 24 hours
Procedure: Experiments were performed using human fetal astrocytes derived from cerebral cortex (cat. no. 882A-05f; Cell Applications, Sant Diego, Calif.). Cells were grown to subconfluence in human astrocyte growth medium (cat. no. 820-500, Cell Applications). […] Test materials were added to subconfluent cultures at a concentration of 2.5 μM and cells were incubated for 24 hours.
RNA was extracted following the incubation period using the RNAeasy Mini Plus kit (Qiagen, Hilden, Germany) and robotic Qiacube Connect station (Qiagen). Samples were shipped on dry ice to the Thermo Fisher Microarray Research Services Laboratory (Santa Clara, Calif.) for transcriptome analysis. RNA quality analysis was performed upon sample receipt using the NanoDrop Lite (Thermo Fisher Scientific, Waltham, Mass.). All samples had 260/280 nm absorbance ratios higher than 1.90, consistent with high-purity RNA.
In follow-up to the study of Example, 1 above, genes associated with multiple sclerosis were identified based upon seven established database sources: (1) the NHGRI-EBI genome-wide association (GWA) study catalogue, (2) the Disease Ontology (DO) database, (3) the DisGeNET (curated) database, (4) the DisGeNET (BeFree), (5) MalaCards, (6) the Medical Subject Heading (MESH) database and the KEGG Database. The impact on gene expression of IDMF, MMF and DRF on the key overlapping MS-associated genes was assessed.
The specific data for four of the key NFR2 target genes associated with antioxidant and anti-inflammatory effects is presented in FIGS. 7(A) thru 7(D).
Both TNFAIP3 and NFKBIA encode inhibitory proteins that suppress the NF-KB pathway. Specifically, TNFAIP3 encodes a deubiquitinating enzyme previously linked to MS by genetic association studies: a TNFAIP3 protein abundance is increased in white matter and cortical lesion astrocytes from MS patient brains. Similarly, NFKBIA (IκBα) encodes an NF-KB inhibitor for which promoter polymorphisms have been associated with MS and abundance of this protein is prominent in macrophage nuclei of MS plaques undergoing active demyelination. ICAM1 encodes an endothelial adhesion molecule that promotes leucocyte extravasation and is associated with the initiation and progression of inflammation as well as the targeting of inflammation in the central nervous system (CNS). FIGS. 9(A), 9(B) and 9(C) show the specific data for these three genes.
Genetic variants of IFR has been associated with MS and some MS treatments such as glatiramer acetate block cytokine-stimulated IRF1 up-regulation. An assessment was undertaken to assess the relative impact of fumarate esters, namely MMF, DRF and IDMF on IFR motif enrichment.

[3] = molecular target: T1, carboxylesterase 2 (CES2) (Homo sapiens, UniProt O00748); test: Carboxylesterase hydrolysis IDMF v DRF; format: in vitro ADME; conditions: 20 μl of 1 mg/ml CES2, 37° C., pH 7.4
T1 sequence (O00748 27-559): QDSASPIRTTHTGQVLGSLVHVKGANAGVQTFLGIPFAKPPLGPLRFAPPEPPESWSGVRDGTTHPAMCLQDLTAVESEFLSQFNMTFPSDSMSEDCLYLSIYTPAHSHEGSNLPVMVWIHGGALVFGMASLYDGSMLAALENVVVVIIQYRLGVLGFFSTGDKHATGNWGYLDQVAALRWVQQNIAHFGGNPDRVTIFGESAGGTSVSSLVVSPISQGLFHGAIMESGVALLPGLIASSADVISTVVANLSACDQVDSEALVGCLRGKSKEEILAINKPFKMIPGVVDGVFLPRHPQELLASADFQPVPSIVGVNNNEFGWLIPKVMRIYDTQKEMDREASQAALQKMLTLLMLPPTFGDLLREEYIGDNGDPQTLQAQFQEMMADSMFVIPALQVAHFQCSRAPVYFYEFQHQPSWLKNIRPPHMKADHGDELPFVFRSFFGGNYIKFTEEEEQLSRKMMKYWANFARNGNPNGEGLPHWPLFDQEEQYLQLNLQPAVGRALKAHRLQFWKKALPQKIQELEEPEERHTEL
Procedure: 20 μl of 1 mg/ml carboxylesterase 2 (CES2) was added to each solution and the solutions incubated at 37° C. for the time periods set forth in Table 5. […] Although tolerable for normal patients, HES is undesirable and detrimental for those individuals have kidney and/or liver issues

## COC(=O)/C=C/C(=O)O[C@H]1CO[C@H]2[C@@H]1OC[C@H]2OC(=O)/C=C/C(=O)OC [IDMF, isosorbide di-(methyl fumarate)]
[1]
  ICAM1 expression: downregulate
  expression of genes linked to A2-polarization: tended to increase the expression
  expression of genes linked to pan-reactive gliosis: decreasing
[2]
  IRF1 expression: marked downregulation
  effect on NRF2 target genes compared with MMF and DRF: much more pronounced effect
  effect on TNFAIP3, NFKBIA and ICAM1 expression: marked downregulation
  expression of heme oxygenase-1 (HMOX1): marked increase in expression
[3]; 0 minutes
  remaining parent compound: 1.086 mM
[3]; 15 minutes
  remaining parent compound: 0.113 mM
